In PubChem BioAssay (NCI):
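Five compound concentrations were applied to cells in 96-well plates for 48 hours; endpoints were derived by simple linear interpolation of the resulting dose-response curve. GI50 marks 50% less growth. TGI: concentration producing complete growth inhibition.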

Experiments:
Assay in all cases: growth of human tumour cells (NCI), 48 h
SK-MEL-5 melanoma = tested on: SK-MEL-5 melanoma
OVCAR-3 ovarian = tested on: OVCAR-3 ovarian
MDA-MB-231 breast = tested on: MDA-MB-231 breast
HOP-62 NSCLC = tested on: HOP-62 NSCLC
A549 NSCLC = tested on: A549 NSCLC
NCI-H226 lung = tested on: NCI-H226 lung
HCT-15 colon = tested on: HCT-15 colon
NCI/ADR-RES ovarian = tested on: NCI/ADR-RES ovarian
SK-MEL-28 melanoma = tested on: SK-MEL-28 melanoma
SF-539 CNS = tested on: SF-539 CNS
HT29 colon = tested on: HT29 colon
SNB-75 CNS = tested on: SNB-75 CNS
HS 578T breast = tested on: HS 578T breast
MCF7 breast = tested on: MCF7 breast
NCI-H460 lung = tested on: NCI-H460 lung
CCRF-CEM leukemia = tested on: CCRF-CEM leukemia
HCC-2998 colon = tested on: HCC-2998 colon
SF-268 CNS = tested on: SF-268 CNS
SN12C renal = tested on: SN12C renal
OVCAR-4 ovarian = tested on: OVCAR-4 ovarian
RPMI-8226 leukemia = tested on: RPMI-8226 leukemia
SW-620 colon = tested on: SW-620 colon
UACC-62 melanoma = tested on: UACC-62 melanoma
KM12 colon = tested on: KM12 colon
BT-549 breast = tested on: BT-549 breast
MDA-MB-435 = tested on: MDA-MB-435
COLO 205 colon = tested on: COLO 205 colon
NCI-H522 lung = tested on: NCI-H522 lung
EKVX NSCLC = tested on: EKVX NSCLC
UO-31 renal = tested on: UO-31 renal
T-47D breast = tested on: T-47D breast
SNB-19 CNS = tested on: SNB-19 CNS
OVCAR-8 ovarian = tested on: OVCAR-8 ovarian
A498 renal = tested on: A498 renal
DU-145 prostate = tested on: DU-145 prostate
U251 CNS = tested on: U251 CNS
LOX IMVI melanoma = tested on: LOX IMVI melanoma
RXF 393 renal = tested on: RXF 393 renal
NCI-H23 lung = tested on: NCI-H23 lung
MOLT-4 leukemia = tested on: MOLT-4 leukemia
HCT-116 colon = tested on: HCT-116 colon
K-562 leukemia = tested on: K-562 leukemia
UACC-257 melanoma = tested on: UACC-257 melanoma
TK-10 renal = tested on: TK-10 renal
M14 melanoma = tested on: M14 melanoma
CAKI-1 renal = tested on: CAKI-1 renal
SK-OV-3 ovarian = tested on: SK-OV-3 ovarian
IGROV1 ovarian = tested on: IGROV1 ovarian
SK-MEL-2 melanoma = tested on: SK-MEL-2 melanoma
ACHN renal = tested on: ACHN renal
HOP-92 NSCLC = tested on: HOP-92 NSCLC
SF-295 CNS = tested on: SF-295 CNS
PC-3 prostate = tested on: PC-3 prostate
HL-60(TB) leukemia = tested on: HL-60(TB) leukemia
OVCAR-5 ovarian = tested on: OVCAR-5 ovarian
786-0 renal = tested on: 786-0 renal

In the case of COc1ccccc1NC(=O)c1ccc(NC2=C(Cl)C(=O)N(Cc3ccccc3)C2=O)cc1, the GI50 (SK-MEL-5 melanoma) is reported as 16 µM, the TGI (SK-MEL-5 melanoma) is reported as 45.3 µM and the GI50 (OVCAR-3 ovarian) is reported as 10.2 µM. It also gave a TGI (OVCAR-3 ovarian) of 22.6 µM, a GI50 (MDA-MB-231 breast) of 2.82 µM and a TGI (MDA-MB-231 breast) of 16.3 µM. The GI50 (HOP-62 NSCLC) was 26.8 µM, the TGI (HOP-62 NSCLC) was 63.5 µM and the GI50 (A549 NSCLC) was 10.5 µM. For the same molecule, the TGI (A549 NSCLC) was 90.4 µM, the GI50 (NCI-H226 lung) was 6.84 µM and the TGI (NCI-H226 lung) was 32.9 µM. The GI50 (HCT-15 colon) was 14.7 µM, the TGI (HCT-15 colon) was 38.8 µM and the GI50 (NCI/ADR-RES ovarian) was 15.2 µM. It also gave a TGI (NCI/ADR-RES ovarian) of 48.1 µM, a GI50 (SK-MEL-28 melanoma) of 30.3 µM and a TGI (SK-MEL-28 melanoma) of over 100 µM. The GI50 (SF-539 CNS) was 16.6 µM, the TGI (SF-539 CNS) was 41.2 µM and the GI50 (HT29 colon) was 36.8 µM. For the same molecule, the TGI (HT29 colon) was over 100 µM, the GI50 (SNB-75 CNS) was 37.7 µM and the TGI (SNB-75 CNS) was over 100 µM. For the same molecule, the GI50 (HS 578T breast) was 37.5 µM, the TGI (HS 578T breast) was over 100 µM and the GI50 (MCF7 breast) was 7.77 µM. For the same molecule, the TGI (MCF7 breast) was 54 µM, the GI50 (NCI-H460 lung) was 33.4 µM and the TGI (NCI-H460 lung) was over 100 µM. The GI50 (CCRF-CEM leukemia) was 0.0777 µM, the TGI (CCRF-CEM leukemia) was over 100 µM and the GI50 (HCC-2998 colon) was 4.2 µM. The TGI (HCC-2998 colon) was 15.4 µM, the GI50 (SF-268 CNS) was 25.4 µM and the TGI (SF-268 CNS) was over 100 µM. It also gave a GI50 (SN12C renal) of 10.3 µM, a TGI (SN12C renal) of 39.5 µM and a GI50 (OVCAR-4 ovarian) of 29.3 µM. For the same molecule, the TGI (OVCAR-4 ovarian) was over 100 µM, the GI50 (RPMI-8226 leukemia) was 0.0257 µM and the TGI (RPMI-8226 leukemia) was 0.363 µM. It also gave a GI50 (SW-620 colon) of 5.29 µM, a TGI (SW-620 colon) of over 100 µM and a GI50 (UACC-62 melanoma) of 0.877 µM. It also gave a TGI (UACC-62 melanoma) of 24.5 µM, a GI50 (KM12 colon) of 26.6 µM and a TGI (KM12 colon) of 86 µM. It also gave a GI50 (BT-549 breast) of 1.46 µM, a TGI (BT-549 breast) of 11 µM and a GI50 (MDA-MB-435) of 11.2 µM. It also gave a TGI (MDA-MB-435) of 40.5 µM, a GI50 (COLO 205 colon) of 44.9 µM and a TGI (COLO 205 colon) of over 100 µM. For the same molecule, the GI50 (NCI-H522 lung) was 5.09 µM, the TGI (NCI-H522 lung) was 22.6 µM and the GI50 (EKVX NSCLC) was 29.1 µM. For the same molecule, the TGI (EKVX NSCLC) was over 100 µM, the GI50 (UO-31 renal) was 1.7 µM and the TGI (UO-31 renal) was 3.2 µM. For the same molecule, the GI50 (T-47D breast) was 41.2 µM, the TGI (T-47D breast) was over 100 µM and the GI50 (SNB-19 CNS) was 48.9 µM. The TGI (SNB-19 CNS) was over 100 µM, the GI50 (OVCAR-8 ovarian) was 2.27 µM and the TGI (OVCAR-8 ovarian) was 32.9 µM. For the same molecule, the GI50 (A498 renal) was 27.8 µM, the TGI (A498 renal) was 86.3 µM and the GI50 (DU-145 prostate) was 2.01 µM. The TGI (DU-145 prostate) was 28 µM, the GI50 (U251 CNS) was 29.3 µM and the TGI (U251 CNS) was over 100 µM. It also gave a GI50 (LOX IMVI melanoma) of 10.3 µM, a TGI (LOX IMVI melanoma) of 35 µM and a GI50 (RXF 393 renal) of 19.9 µM. For the same molecule, the TGI (RXF 393 renal) was 78.8 µM, the GI50 (NCI-H23 lung) was 12 µM and the TGI (NCI-H23 lung) was 25.9 µM. It also gave a GI50 (MOLT-4 leukemia) of 3.31 µM, a TGI (MOLT-4 leukemia) of over 100 µM and a GI50 (HCT-116 colon) of 12.9 µM. For the same molecule, the TGI (HCT-116 colon) was 36.2 µM, the GI50 (K-562 leukemia) was 4.21 µM and the TGI (K-562 leukemia) was over 100 µM. For the same molecule, the GI50 (UACC-257 melanoma) was 0.228 µM, the TGI (UACC-257 melanoma) was 21.9 µM and the GI50 (TK-10 renal) was 40.3 µM. For the same molecule, the TGI (TK-10 renal) was 89.1 µM, the GI50 (M14 melanoma) was 17.6 µM and the TGI (M14 melanoma) was 40.4 µM. It also gave a GI50 (CAKI-1 renal) of 1.48 µM, a TGI (CAKI-1 renal) of 2.95 µM and a GI50 (SK-OV-3 ovarian) of over 100 µM. The TGI (SK-OV-3 ovarian) was over 100 µM, the GI50 (IGROV1 ovarian) was 1.36 µM and the TGI (IGROV1 ovarian) was 4.29 µM. It also gave a GI50 (SK-MEL-2 melanoma) of 11.2 µM, a TGI (SK-MEL-2 melanoma) of 29.9 µM and a GI50 (ACHN renal) of 33.4 µM. The TGI (ACHN renal) was over 100 µM, the GI50 (HOP-92 NSCLC) was 3.68 µM and the TGI (HOP-92 NSCLC) was 45.4 µM. The GI50 (SF-295 CNS) was 18.2 µM, the TGI (SF-295 CNS) was 63.4 µM and the GI50 (PC-3 prostate) was 0.976 µM. For the same molecule, the TGI (PC-3 prostate) was 5.75 µM, the GI50 (HL-60(TB) leukemia) was 3.36 µM and the TGI (HL-60(TB) leukemia) was 43.5 µM. The GI50 (OVCAR-5 ovarian) was 44.1 µM and the TGI (OVCAR-5 ovarian) was over 100 µM.
O=C(NCCCCN(CCCNC(=O)C(F)(F)F)Cc1ccccc1)C(F)(F)F showed a TGI (SK-MEL-5 melanoma) of over 100 µM, a TGI (OVCAR-3 ovarian) of over 100 µM and a TGI (MDA-MB-231 breast) of over 100 µM. For the same molecule, the TGI (HOP-62 NSCLC) was over 100 µM, the TGI (A549 NSCLC) was over 100 µM and the TGI (NCI-H226 lung) was over 100 µM. For the same molecule, the TGI (HCT-15 colon) was over 100 µM, the TGI (NCI/ADR-RES ovarian) was over 100 µM and the TGI (SK-MEL-28 melanoma) was over 100 µM. For the same molecule, the TGI (SF-539 CNS) was over 100 µM, the TGI (HT29 colon) was over 100 µM and the TGI (SNB-75 CNS) was over 100 µM. For the same molecule, the TGI (HS 578T breast) was over 100 µM, the TGI (MCF7 breast) was over 100 µM and the TGI (NCI-H460 lung) was over 100 µM. It also gave a TGI (CCRF-CEM leukemia) of over 100 µM, a TGI (HCC-2998 colon) of over 100 µM and a TGI (SF-268 CNS) of over 100 µM. For the same molecule, the TGI (SN12C renal) was over 100 µM, the TGI (OVCAR-4 ovarian) was over 100 µM and the TGI (RPMI-8226 leukemia) was over 100 µM. The TGI (SW-620 colon) was over 100 µM, the TGI (UACC-62 melanoma) was over 100 µM and the TGI (KM12 colon) was over 100 µM. The TGI (BT-549 breast) was over 100 µM, the TGI (MDA-MB-435) was over 100 µM and the TGI (COLO 205 colon) was over 100 µM. The TGI (NCI-H522 lung) was over 100 µM, the TGI (EKVX NSCLC) was over 100 µM and the TGI (UO-31 renal) was over 100 µM. It also gave a TGI (T-47D breast) of over 100 µM, a TGI (SNB-19 CNS) of over 100 µM and a TGI (OVCAR-8 ovarian) of over 100 µM. The TGI (786-0 renal) was over 100 µM, the TGI (A498 renal) was over 100 µM and the TGI (DU-145 prostate) was over 100 µM. It also gave a TGI (U251 CNS) of over 100 µM, a TGI (RXF 393 renal) of over 100 µM and a TGI (NCI-H23 lung) of over 100 µM. For the same molecule, the TGI (MOLT-4 leukemia) was over 100 µM, the TGI (HCT-116 colon) was over 100 µM and the TGI (K-562 leukemia) was over 100 µM. For the same molecule, the TGI (UACC-257 melanoma) was over 100 µM, the TGI (TK-10 renal) was over 100 µM and the TGI (M14 melanoma) was over 100 µM. It also gave a TGI (SK-OV-3 ovarian) of over 100 µM, a TGI (IGROV1 ovarian) of over 100 µM and a TGI (SK-MEL-2 melanoma) of over 100 µM. It also gave a TGI (ACHN renal) of over 100 µM, a TGI (HOP-92 NSCLC) of over 100 µM and a TGI (SF-295 CNS) of over 100 µM. The TGI (PC-3 prostate) was over 100 µM, the TGI (HL-60(TB) leukemia) was over 100 µM and the TGI (OVCAR-5 ovarian) was over 100 µM.
